Reference: ChEMBL document CHEMBL4118202, “Chiral analogues of (+)-cyclazosin as potent α1B-adrenoceptor selective antagonist” (Bioorg Med Chem, 2018)

Assays:
Homo sapiens [1] = species: Homo sapiens; assay: Selectivity ratio of compound effect for alpha1B adrenergic receptor (unknown origin) to compound effect for alpha1D adrenergic receptor (unknown origin)
[2] = target: T1, Alpha-1A adrenergic receptor (Homo sapiens, UniProt P35348); assay: Binding affinity to alpha1A adrenergic receptor (unknown origin)
T1 sequence (P35348 whole entry): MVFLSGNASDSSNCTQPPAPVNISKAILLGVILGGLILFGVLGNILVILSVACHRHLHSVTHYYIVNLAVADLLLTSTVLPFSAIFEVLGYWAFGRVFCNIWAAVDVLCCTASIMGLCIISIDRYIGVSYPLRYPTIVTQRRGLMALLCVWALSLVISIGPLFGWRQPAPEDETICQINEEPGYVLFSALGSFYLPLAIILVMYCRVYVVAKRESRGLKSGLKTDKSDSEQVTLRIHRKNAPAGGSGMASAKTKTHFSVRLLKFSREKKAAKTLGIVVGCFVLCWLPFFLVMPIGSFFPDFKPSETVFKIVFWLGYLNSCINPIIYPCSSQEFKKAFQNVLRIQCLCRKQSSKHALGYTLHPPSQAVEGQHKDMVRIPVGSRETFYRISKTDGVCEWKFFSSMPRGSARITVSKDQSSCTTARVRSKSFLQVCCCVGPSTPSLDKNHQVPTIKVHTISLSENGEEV

[3] = target: T2, Alpha-1B adrenergic receptor (Homo sapiens, UniProt P35368); assay: Binding affinity to alpha1B adrenergic receptor (unknown origin)
T2 sequence (P35368 whole entry): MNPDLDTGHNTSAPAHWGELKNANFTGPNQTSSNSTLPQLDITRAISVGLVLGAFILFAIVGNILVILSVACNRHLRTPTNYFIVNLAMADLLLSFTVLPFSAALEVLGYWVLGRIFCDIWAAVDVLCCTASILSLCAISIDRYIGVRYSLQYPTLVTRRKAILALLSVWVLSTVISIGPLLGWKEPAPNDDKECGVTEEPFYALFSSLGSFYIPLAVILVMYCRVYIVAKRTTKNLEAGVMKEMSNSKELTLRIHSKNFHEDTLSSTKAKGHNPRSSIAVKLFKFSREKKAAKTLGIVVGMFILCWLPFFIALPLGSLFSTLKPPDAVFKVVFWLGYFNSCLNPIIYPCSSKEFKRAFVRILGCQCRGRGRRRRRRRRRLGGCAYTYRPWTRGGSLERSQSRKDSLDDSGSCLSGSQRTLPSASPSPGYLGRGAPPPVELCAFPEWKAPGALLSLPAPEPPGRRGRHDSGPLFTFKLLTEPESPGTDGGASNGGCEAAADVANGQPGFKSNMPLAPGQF

Homo sapiens [4] = species: Homo sapiens; assay: Selectivity ratio of compound effect for alpha1D adrenergic receptor (unknown origin) to compound effect for alpha1A adrenergic receptor (unknown origin)

`COc1cc2nc(N3CCN(C(=O)C4COc5ccccc5O4)[C@H]4CCCC[C@H]43)nc(N)c2cc1OC` (single isomer, unassigned; (-)) [CYCLODOXAZOSIN] showed a Selectivity ratio (Homo sapiens [1]) of 3, a Ki [2] of 3.39 nM and a Ki [3] of 1.41 nM. For the same molecule, the Selectivity ratio (Homo sapiens [4]) was 1.
